Experiment: xn = mol fraction of the nth substance listed
Conditions: 101 kPa, Liquid; for viscosity: Concentric cylinders viscometry; for mass density: Vibrating tube method

N [ammonia] + O
Conditions	mass density, x1 = 0.0268 [kg/m3]	mass density, x1 = 0.0505 [kg/m3]	mass density, x1 = 0.1124 [kg/m3]	mass density, x1 = 0.148 [kg/m3]	mass density, x1 = 0.3043 [kg/m3]	viscosity, x1 = 0.0111 [mPa·s]	viscosity, x1 = 0.0262 [mPa·s]	viscosity, x1 = 0.0279 [mPa·s]	viscosity, x1 = 0.1147 [mPa·s]	viscosity, x1 = 0.176 [mPa·s]
283.15 K	988.73	979.82	957.85	944.97	895.9	1.313	1.428	1.352	1.559	1.713
293.15 K	986.79	977.5	954.52	941.01	889.82	1.025	1.074	1.046	1.157	1.289
303.15 K	983.98	974.43	950.65	936.67	–	0.8106	0.845	0.8278	0.9025	0.9955
313.15 K	980.32	970.59	946.14	931.7	–	0.672	0.7124	0.6922	0.7653	0.8467
323.15 K	975.98	966.09	940.98	926.12	–	0.5645	0.5945	0.5795	0.6297	0.6829

C1CNCCN1 [piperazine] + O
Conditions	mass density, x1 = 0.00181 [kg/m3]	mass density, x1 = 0.00367 [kg/m3]	mass density, x1 = 0.00741 [kg/m3]	mass density, x1 = 0.01119 [kg/m3]	mass density, x1 = 0.01938 [kg/m3]	viscosity, x1 = 0.000906 [mPa·s]	viscosity, x1 = 0.00182 [mPa·s]	viscosity, x1 = 0.00366 [mPa·s]	viscosity, x1 = 0.00553 [mPa·s]	viscosity, x1 = 0.00742 [mPa·s]
283.15 K	1000.15	1000.51	1001.34	1002.24	1004.7	1.33	1.362	1.393	1.462	1.533
293.15 K	998.63	998.98	999.75	1000.58	1002.52	1.012	1.043	1.092	1.119	1.174
303.15 K	996.1	996.42	997.15	997.91	999.69	0.8241	0.8339	0.8791	0.8894	0.9414
313.15 K	992.66	992.99	993.68	994.37	996.04	0.6757	0.6868	0.7176	0.7531	0.78
323.15 K	988.51	988.81	989.47	990.14	991.64	0.5816	0.5923	0.621	0.6448	0.6604

O [water] + C1CNCCN1
x2 = 0
Conditions	mass density [kg/m3]	viscosity [mPa·s]
283.15 K	999.7	1.307
293.15 K	–	1.002
303.15 K	–	0.7977
313.15 K	–	0.6532
323.15 K	988.04	0.547

O [water] + N
x2 = 0
Conditions	mass density [kg/m3]	viscosity [mPa·s]
283.15 K	999.7	1.307
293.15 K	–	1.002
303.15 K	–	0.7977
313.15 K	–	0.6532
323.15 K	988.04	0.547
